Patent US20210380683A1, “MODULATION OF IRF-4 AND USES THEREOF” (THE METHODIST HOSPITAL SYSTEM, priority 2018, published 2021)

Tested on: Balb/c heart allograft in WT B6 mice
Experiment: Balb/c heart allograft survival in WT B6 recipients
Assay type: in vivo, mouse
Conditions: 3 mg/kg every other day from day 0 to day 12; WT B6 recipients of Balb/c hearts
Experimental: Murine heterotopic heart transplantation. Heart transplantation in mice was performed by a previously described method (Miyahara et al., 2012; Chen et al., 2007). In brief, hearts from Balb/c donors were transplanted into 8 to 10-week-old male WT B6, Irf4^fl/flCd4-Cre, CD45.1+ congenic, or Rag1−/− recipient mice. Pulmonary artery and aorta of donor heart were cut open, remaining heart vessels were tied off, and heart was removed. […] Anastomosis was made by 11-0 sutures running continuously. 6-0 silk thread was removed, and abdomen was then closed by 5-0 sutures in two layers. Heart graft survival was monitored daily by palpation, and the day of complete cessation of heartbeat was considered as the day of rejection. Recipient mice were i.p. injected with Rat IgG, anti-PD-L1 (10F.9G2), anti-CTLA-4 (9D9), anti-CD4 (GK1.5), anti-CD8 (53-6.7), or anti-CD25 (PC-61.5.3) mAbs obtained from Bio-X-Cell (West Lebanon, N.H.), oral gavaged with trametinib (Selleck Chemicals, Houston, Tex.) or corn oil, or i.v. transferred with WT B6, Irf4^−/−, TEa, TEa Irf4^−/−, or IRF4 re-introduced Irf4^−/− T cells. At various days post-transplant, splenocytes and graft infiltrating cells were obtained for flow cytometry analysis, and allografts were sectioned and stained with hematoxylin and eosin for microscopic evaluation.

Structure (SMILES): CC(=O)Nc1cccc(-n2c(=O)n(C3CC3)c(=O)c3c(Nc4ccc(I)cc4F)n(C)c(=O)c(C)c32)c1 [trametinib]
- heart allograft survival (MST): 13.17±0.75 days
